The nature of series [1]: Solubility of each compound in a DMSO solution. The format is physicochemical. An excerpt: In terms of the solubility of each compound in a DMSO solution, a comparison was made among the compound represented by the Formula (2), the compounds represented by the formulae (11) and (14), and a compound in which a halogen atom or the like has not been introduced into the thiophene ring of the compound of the formula (2) (4-((6-methoxy-3-pyridinyl)methylene)-2-(2-thienyl)-5(4H)-oxazolone). The compound represented by the formula (2) and the compounds represented by the formulae (11) and (14) were easily dissolved in final concentrations of 35 mM, 10 mM and 20 mM, respectively, in the DMSO solution. On the other hand, the compound in which a halogen atom or the like has not been introduced into the thiophene ring of the compound of the formula (2) was dissolved in a final concentration of 10 mM in the DMSO solution by being intensively stirred.

The target in series [2] is T1, human recombinant casein kinase 1δ (substrate human recombinant tau) (Homo sapiens, UniProt P48730).
T1 construct: purchased Carna Biosciences 03-103
As to the kind of experiment: Casein kinase 1δ inhibition with tau as substrate (Phos-tag Western blotting). The format is biochemical. The following applies: compound 25 μM to 1 μM, 200 μM ATP, vs reaction solution without compound. How it is done:
The activity of the present compound to inhibit casein kinase 1δ having tau as a substrate can be examined using human recombinant casein kinase 1δ (Carna Biosciences; Cat No. 03-103) as an enzyme source and also using human recombinant tau (Sigma-Aldrich; Cat No. T0576) as a phosphorylation substrate. The composition (final concentration) applied during the inhibitory activity measurement assay is as follows.
25 μg/ml casein kinase 1δ, 10 μg/ml tau, the present compound (25 μM to 1 μM), 200 μM ATP, 50 mM HEPES (pH7.4), 10 mM MgCl2, 0.01% Brij-35, 200 μM Na3VO4, and 0.25% DMSO
The present compound has previously been allowed to react with the enzyme at room temperature for 15 minutes, and tau is then added to the reaction product. Thereafter, a phosphorylation reaction is carried out for 2 hours. After completion of the phosphorylation reaction, the reaction solution is subjected to Western blotting, so that the phosphorylation of the human recombinant tau transcribed on a PVDF membrane is detected using Phos-tag (NARD Institute, Ltd.; Cat No. BTL-104) according to a chemiluminescence method (ECL Plus; GE Healthcare; Cat No. RPN2132). The PVDF membrane after detection of the phosphorylation reaction is deprobed in accordance with the protocols of the Phos-tag, and thereafter, a total tau protein content can be detected by an antibody reaction. […]
On the technique in general: In western blotting, separated proteins are transferred to a membrane and probed.

The target in series [3] is T2, human recombinant casein kinase 1ε (Homo sapiens, UniProt P49674).
T2 construct: purchased INVITROGEN PV3500
Put plainly: Casein kinase 1ε inhibition, Z'-LYTE Ser/Thr 11 Peptide assay. The format is biochemical. Particulars: 0.3 μg/ml compound; for inhibition at 0.3 µg/mL: 20 μM ATP, 0.5 μg/ml enzyme, formula (2) high-purity from Scheme 2, read-out: Casein kinase1ε inhibition percentage. How it is done: (§1) The activity of the present compound to inhibit casein kinase 1δ and casein kinase 1ε was measured using human recombinant casein kinase 1δ (INVITROGEN; Cat No. PV3665) or human recombinant casein kinase 1ε (INVITROGEN; Cat No. PV3500) as an enzyme source, and also using Z′-LYTE Ser/Thr 11 Peptide (INVITROGEN; Cat No. PV3671) as a phosphorylation substrate. The composition (final concentration) applied during each inhibitory activity measurement assay is as follows.
Assay for Casein Kinase 1ε
0.5 μg/ml casein kinase 1ε, 0.3 μg/ml the present compound, 1.0 μM Peptide, 20 μM ATP, 50 mM HEPES (pH 7.4), 10 mM MgCl2, 0.01% Brij-35, and 0.5% DMSO
(§2) The present compound was previously allowed to react with the enzyme at room temperature, for 15 minutes. Two hours later, the remaining phosphorylation activity was measured using Z′-LYTE Kinase Assay Kit-Ser/Thr 11 Peptide (INVITROGEN; Cat No. PV3670).
(§3) The inhibition percentage of the present compound against the phosphotylation activity of each of casein kinase 1δ and casein kinase 1ε to which the present compound had not been added, was calculated.

Series [4] has as its target Dual specificity tyrosine-phosphorylation-regulated kinase 1A (DYRK1A) (Homo sapiens, UniProt Q13627). Put plainly: DYRK1A inhibition, Profiler Pro kit method. The following applies: compound 1 μM; read-out: DYRK1A enzyme activity inhibition percentage. The format is biochemical. An excerpt:
As with casein kinase 1δ, this DYRK1A has been known as a candidate kinase for phosphorylating tau proteins, and also as a kinase for controlling circadian rhythm.

Series [5] deals with T3, human recombinant casein kinase 1δ (Homo sapiens, UniProt P48730).
T3 construct: purchased INVITROGEN PV3665
Put plainly: Casein kinase 1δ inhibition, Z'-LYTE Ser/Thr 11 Peptide assay. The format is biochemical. Particulars: 0.3 μg/ml compound; for inhibition at 0.3 µg/mL: 20 μM ATP, 3.0 or 1.0 μg/ml enzyme, formula (2) high-purity from Scheme 2, read-out: Casein kinase 1δ inhibition percentage. How it is done:
as §1
Assay for Casein Kinase 1δ
3.0 μg/ml or 1.0 μg/ml casein kinase 1δ, 0.3 μg/ml the present compound, 1.0 μM Peptide, 20 μM ATP, 50 mM HEPES (pH 7.4), 10 mM MgCl2, 0.01% Brij-35, and 0.5% DMSO
as §2, §3

The test system of series [6] is various types of kinases (MAPKAPK2, AurA, PKCζ, RSK1, PRAK, Erk1, PKD2, CHK1, ABL, FYN, LYN, CHK2, MET, LCK, SRC, GSK3β, Erk2, PKA, AKT2, INSR, p38α, AKT1 …). As to the kind of experiment: Inhibitory specificity to various types of kinases, Profiler Pro kit. The format is biochemical. The following applies: final concentration of 10 μM, 1 μM or 0.1 μM; reacted 15 minutes. The method, then: The inhibitory specificity of the casein kinase 1δ to and casein kinase 1ε inhibiting compounds to various types of kinases can be examined using Profiler Pro kit (manufactured by Caliper Life Sciences) in accordance with the method described in an instruction manual included therewith. The compounds represented by the formulae (2), (11) and (14) were each allowed to react with various types of kinases for 15 minutes, resulting in the final concentration of 10 μM, 1 μM or 0.1 μM. After completion of the reaction, enzyme activity was examined.

Series [7] deals with human pancreatic cancer cell line. The following applies: added in vitro; cited from earlier work.
The subject of series [8] is pancreatic cancer cell line transplanted into the subcutis of a mouse. The following applies: subcutaneous transplant; cited from earlier work.
Series [9] relates to N2A cells (N2A-APP695 cells). The following applies: N2A-APP695 cells excessively expressing constitutively active casein kinase 1ε; cited from earlier work.
Series [10] concerns rats. Put plainly: Rat circadian rhythm disorder model (momentum and non-REM sleep under LD conditions). The format is in vivo. Particulars: for momentum / non-REM sleep amount: 60 mg/kg intraperitoneal immediately before dark period, vs untreated rats. How it is done: Specifically, rats were acclimatized for one or more weeks under light/dark (LD) conditions consisting of a light period for 12 hours and a dark period for 12 hours. Immediately before the beginning of the dark period, the compound represented by the formula (11) was mixed with a solubilizing agent, and the mixture was intraperitoneally administered to each rat at a dose of 60 mg/kg. […] On the other hand, with regard to a compound in which as halogen group or the like had not been introduced into the thiophene ring of the compound represented by the formula (2) ((4-((6-methoxy-3-pyridinyl)methylene)-2-(2-thienyl)-5(4H)-oxazolone)), the same test as described above was carried out.

The target of series [11] is p38α (Homo sapiens, UniProt Q16539). Particulars: cited from earlier work.
Series [12] has as its system rats. Particulars: subcutaneous administration; cited from earlier work.
Setting [13] is: low-purity compound obtained by Scheme 1.

Structures are written as SMILES.

This is an account of results in US8710231B2, “Inhibitor of casein kinase 1delta and casein kinase 1E” (Pharmadesign, Inc., priority 2010, dated 2014).

T2 sequence (P49674 whole entry): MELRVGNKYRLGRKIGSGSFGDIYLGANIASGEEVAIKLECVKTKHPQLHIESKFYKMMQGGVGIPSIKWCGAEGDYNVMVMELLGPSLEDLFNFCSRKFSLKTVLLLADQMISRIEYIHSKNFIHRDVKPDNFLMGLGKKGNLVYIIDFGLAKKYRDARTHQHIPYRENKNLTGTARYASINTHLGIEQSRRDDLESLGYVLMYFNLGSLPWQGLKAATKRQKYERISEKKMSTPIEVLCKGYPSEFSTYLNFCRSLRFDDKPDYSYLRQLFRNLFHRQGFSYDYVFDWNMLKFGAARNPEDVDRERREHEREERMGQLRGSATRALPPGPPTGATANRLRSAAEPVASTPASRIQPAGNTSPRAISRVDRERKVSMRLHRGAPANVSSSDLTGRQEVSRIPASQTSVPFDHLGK
T3 sequence (P48730 whole entry): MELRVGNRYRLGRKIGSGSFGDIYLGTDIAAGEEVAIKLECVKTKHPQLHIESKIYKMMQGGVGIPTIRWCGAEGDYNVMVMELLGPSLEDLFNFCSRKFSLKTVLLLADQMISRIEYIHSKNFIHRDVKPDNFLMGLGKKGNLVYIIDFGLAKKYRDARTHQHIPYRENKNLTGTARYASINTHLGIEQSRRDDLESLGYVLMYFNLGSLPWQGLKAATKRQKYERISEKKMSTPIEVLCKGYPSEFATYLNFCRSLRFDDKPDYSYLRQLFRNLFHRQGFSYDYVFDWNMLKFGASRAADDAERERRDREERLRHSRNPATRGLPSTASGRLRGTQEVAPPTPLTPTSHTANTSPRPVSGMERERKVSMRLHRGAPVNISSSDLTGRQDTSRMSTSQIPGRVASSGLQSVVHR
T1 sequence (P48730 whole entry): as above
Chain of p38α (Q16539 whole entry): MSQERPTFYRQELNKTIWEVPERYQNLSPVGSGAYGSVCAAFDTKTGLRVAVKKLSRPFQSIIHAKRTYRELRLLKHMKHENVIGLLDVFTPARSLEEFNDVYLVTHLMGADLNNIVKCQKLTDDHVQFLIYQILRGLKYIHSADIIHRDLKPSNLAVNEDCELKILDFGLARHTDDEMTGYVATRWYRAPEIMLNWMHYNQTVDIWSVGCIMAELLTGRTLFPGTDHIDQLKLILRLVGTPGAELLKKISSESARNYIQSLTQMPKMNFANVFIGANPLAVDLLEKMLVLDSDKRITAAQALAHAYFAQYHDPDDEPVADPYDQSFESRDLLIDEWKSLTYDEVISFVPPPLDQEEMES

Consider `COc1ccc(/C=C2\N=C(c3ccc(F)s3)OC2=O)cn1` [Formula (2), 4-((6-Methoxy-3-pyridinyl)methylene)-2-(5-fluoro-2-thienyl)-5(4H)-oxazolone], for which the “final concentration dissolved in the DMSO solution” value (“final concentration dissolved” below) in series [1] (easily dissolved) stood at 35 mM. The “inhibition of phosphorylation of tau by casein kinase 1δ (phosphorylation rate of tau)” value in series [2] is reported as “significant inhibition”. The inhibition (as a rule, the share of the control response that was lost under treatment) at 0.3 µg/mL stood at 97.7% in series [3] and 83% in series [5]. Further, in series [3] (setting [13]), the “inhibitory activity against casein kinase 1ε” value is “significant inhibitory activity”. The inhibition at 1 µM in [4] was 65%. Further, the “inhibitory activity against casein kinase 1δ” value in series [5] (setting [13]) was “significant inhibitory activity”. Further, the “inhibitory activity against various types of kinases causing concerns about side effects” value in [6] is reported as “did not have significant inhibitory activity”.
With `COc1cc(OC)c(C=C2C(O)=Nc3ccccc32)c(OC)c1` [IC261], the cell growth result in series [7] is listed as “suppression of the cell growth”. The “growth of tumor cells” value in series [8] is reported as “significant effect of suppressing the growth of tumor cells”. Further, in series [9], the “amounts of Aβ40 and Aβ42” value is given as “decreased”.
Take `COc1ccc(/C=C2\N=C(c3ccc(Cl)s3)OC2=O)cn1` [Formula (11), 4-((6-Methoxy-3-pyridinyl)methylene)-2-(5-chloro-2-thienyl)-5(4H)-oxazolone]: the “final concentration dissolved” value in series [1] (easily dissolved) was 10 mM. For the same molecule, the “inhibition of phosphorylation of tau by casein kinase 1δ (phosphorylation rate of tau)” value in series [2] is reported as “significant inhibition”. The inhibition at 0.3 µg/mL in series [3] worked out at 94.8%. Further, the inhibition at 1 µM in series [4] stood at 78%. For the same molecule, the inhibition at 0.3 µg/mL in series [5] came out at 77.9%. Moreover, in [10], the momentum result is “statistically significant reduction” and the non-REM sleep amount entry is given as “increase”. In series [10] (same test), the “medicinal effect compared with the compound without halogen on the thiophene ring” value is “significantly higher”. In addition, the “inhibitory activity against various types of kinases causing concerns about side effects” value in series [6] is listed as “did not have significant inhibitory activity”.
With `COc1ccc(C=C2N=C(c3cccs3)OC2=O)cn1` [4-((6-methoxy-3-pyridinyl)methylene)-2-(2-thienyl)-5(4H)-oxazolone, reference compound], the “final concentration dissolved” value in series [1] (dissolved by being intensively stirred) amounted to 10 mM. In series [10], the momentum entry is on record as “significant reduction” and the non-REM sleep amount entry is reported as “increase”.
On to `Nc1nccc(-c2c(-c3ccc(F)cc3)ncn2C2CCCCC2)n1` [PF-670462, 4-[3-cyclohexyl-5-(4-fluoro-phenyl)-3H-imidazol-4-yl]-pyrimidin-2-ylamine], for which, in series [11], the “inhibitory action against p38α” value is given as “exhibit inhibitory action”. Further, in series [12], the “phase of circadian rhythm” value was “significantly delayed”.
Regarding `COc1ccc(/C=C2\N=C(c3ccc(Br)s3)OC2=O)cn1` [Formula (14)], the “final concentration dissolved” value in series [1] (easily dissolved) was 20 mM. In addition, the inhibition at 0.3 µg/mL in series [3] is 95%; in series [5] it was 77.8%. The inhibition at 1 µM in series [4] came out at 85%. The “inhibitory activity against various types of kinases causing concerns about side effects” value in [6] was “did not have significant inhibitory activity”.
